Patent US20250230165A1, “HETEROCYCLIC COMPOUNDS FOR USE IN THE TREATMENT OF CANCER” (ARTIOS PHARMA LIMITED, priority 2021, published 2025)

Molecular target: T1, Human Polθ polymerase domain (aa1820-2590) (Homo sapiens, UniProt O75417)
T1 construct: Human Polθ polymerase domain (aa1820-2590) was expressed in E. coli; made in house; host or cells: E. coli
T1 sequence (O75417 1820-2590): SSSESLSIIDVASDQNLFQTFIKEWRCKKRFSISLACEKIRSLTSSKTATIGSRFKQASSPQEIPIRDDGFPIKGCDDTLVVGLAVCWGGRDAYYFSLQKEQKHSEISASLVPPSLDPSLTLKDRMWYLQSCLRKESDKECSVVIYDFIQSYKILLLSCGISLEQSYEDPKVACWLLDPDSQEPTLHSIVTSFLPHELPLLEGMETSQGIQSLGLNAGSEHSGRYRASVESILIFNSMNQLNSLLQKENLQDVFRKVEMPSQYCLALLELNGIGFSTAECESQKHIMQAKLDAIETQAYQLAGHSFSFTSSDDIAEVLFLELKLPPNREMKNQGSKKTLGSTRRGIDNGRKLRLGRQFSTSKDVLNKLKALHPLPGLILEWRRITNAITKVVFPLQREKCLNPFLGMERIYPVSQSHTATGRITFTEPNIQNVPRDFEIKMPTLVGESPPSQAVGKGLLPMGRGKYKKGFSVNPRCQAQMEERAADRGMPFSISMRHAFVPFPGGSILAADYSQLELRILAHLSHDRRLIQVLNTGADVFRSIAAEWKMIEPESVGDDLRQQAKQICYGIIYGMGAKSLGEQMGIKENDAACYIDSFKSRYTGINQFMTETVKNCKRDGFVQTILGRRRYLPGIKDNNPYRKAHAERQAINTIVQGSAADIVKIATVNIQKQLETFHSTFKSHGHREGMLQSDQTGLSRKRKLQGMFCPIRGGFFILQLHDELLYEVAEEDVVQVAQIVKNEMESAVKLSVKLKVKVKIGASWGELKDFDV
Test: Polθ Polymerase Domain Kinact/KI Assay (PicoGreen)
Format: biochemical
Settings: 0.8 nM Polθ, 100 nM DNA substrate, kobs vs [I] fit for 2-step covalent inhibitor
In short: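 Kinact and KI derive from fitting kobs versus [I], where kobs were fitted from EDTA-stopped PicoGreen time courses (up to 60 min) in Tris pH 7.5 buffer with 1% DMSO, 0.8 nM enzyme, 100 nM DNA and […].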

SMILES	Kinact/Kl [M⁻¹ s⁻¹]
C=C(CN(C)C)C(=O)N1CC(c2cccc(CN3C[C@H]4CC(=O)N(c5cc(C(F)(F)F)cc(C)n5)[C@@H]4C(=O)N(C)c4cccc(F)c43)c2)C1 [Example 152, (3aR, 11aS)-5-(3-(1-(2-((dimethylamino)methyl)acryloyl)azetidin-3-yl)benzyl)-6-fluoro-10-methyl-1-(6-methyl-4-(trifluoromethyl)pyridin-2-yl)-1,3a,4,5,10,11a-hexahydro-2H-benzo[b]pyrrolo[2,3-f][1,4]diazocine-2,11(3H)-dione]	5.05e+06
C=CC(=O)N1CCN2CC(=O)N(CCN3C[C@H]4CC(=O)N(c5cc(C(F)(F)F)cc(C)n5)[C@@H]4C(=O)N(C)c4cccc(F)c43)C[C@@H]2C1 [Example 47, (3aR,11aS)-5-(2-((S)-8-acryloyl-3-oxooctahydro-2H-pyrazino[1,2-a]pyrazin-2-yl)ethyl)-6-fluoro-10-methyl-1-(6-methyl-4-(trifluoromethyl)pyridin-2-yl)-1,3a,4,5,10,11a-hexahydro-2H-benzo[b]pyrrolo[2,3-f][1,4]diazocine-2,11(3H)-dione]	140000
Cc1cc(C(F)(F)F)cc(N2C(=O)C[C@@H]3CN(Cc4ccc([C@H]5CCCN5C(=O)/C=C/CN(C)C)cc4)c4c(F)cccc4N(C)C(=O)[C@H]32)n1 (racemic) [Example 170a, (3aR,11aS)-5-(4-((R/S)-1-((E)-4-(dimethylamino)-but-2-enoyl)pyr-rolidin-2-yl)benz-yl)-6-fluoro-10-methyl-1-(6-methyl-4-(tri-fluoromethyl)-pyridin-2-yl)-1,3a,4,5,10,11a-hexahydro-2H-benzo[b]pyrrolo [2,3-f][1,4]diazo-cine-2,11(3H)-dione]	880000
C=CC(=O)Nc1ccc(CN2C[C@H]3CC(=O)N(c4cc(C(F)(F)F)cc(C)n4)[C@@H]3C(=O)N(C)c3cccc(Cl)c32)cn1 [Example 282, N-(5-(((3aR,11aS)-6-chloro-10-methyl-1-(6-methyl-4-(trifluoromethyl)pyridin-2-yl)-2,11-dioxo-1,2,3,3a,4,10,11,11a-octahydro-5H-benzo[b]pyrrolo[2,3-f][1,4]diazocin-5-yl)methyl)pyridin-2-yl)acrylamide]	870000
C=C(CN(C)C)C(=O)NCC12CC(CN3C[C@H]4CC(=O)N(c5cc(C(F)(F)F)cc(C)n5)[C@@H]4C(=O)N(C)c4cccc(C)c43)(C1)C2 [Example 185, N-((3-(((3aR,11aS)-6,10-dimethyl-1-(6-methyl-4-(trifluoromethyl)-pyridin-2-yl)-2,11-dioxo-1,2,3,3a,4, 10,11,11a-octa-hydro-5H-benzo [b]pyrrolo[2,3-f] [1,4]diazocin-5-yl)methyl)bicyclo [1.1.1]pentan-1-yl)methyl)-2-((dimethylamino)-methyl)acrylamide]	1.27e+06
C=CC(=O)N1CC2(CN(CCN3C[C@H]4CC(=O)N(c5cc(C(F)(F)F)cc(C)n5)[C@@H]4C(=O)N(C)c4cccc(C)c43)C[C@H]2C#N)C1 (racemic) [Example 118b, (S/R)-2-acryloyl-6-(2-((3aR,11aS)-6,10-dimethyl-1-(6-methyl-4-(trifluoromethyl)pyridin-2-yl)-2,11-dioxo-1,2,3,3a,4,10,11,11a-octahydro-5H-benzo[b]pyrrolo[2,3-f][1,4]diazocin-5-yl)ethyl)-2,6-diazaspiro[3.4]octane-8-carbonitrile]	3.36e+06
C=CC(=O)N1Cc2nc(CN3C[C@H]4CC(=O)N(c5cc(C(F)(F)F)cc(C)n5)[C@@H]4C(=O)N(C)c4cccc(Cl)c43)cn2CC1C(F)(F)F (single isomer, unassigned) [Example 293b]	1.28e+06
C=CC(=O)N1CC(N2CCC(CN3C[C@H]4CC(=O)N(c5cc(C(F)(F)F)cc(C)n5)[C@@H]4C(=O)N(C)c4cccc(C)c43)CC2)C1 [Example 93, (3aR,11aS)-5-((1-(1-acryloylazetidin-3-yl)piperidin-4-yl)methyl)-6,10-dimethyl-1-(6-methyl-4-(trifluoromethyl)pyridin-2-yl)-1,3a,4,5,10,11a-hexahydro-2H-benzo[b]pyrrolo[2,3-f][1,4]diazocine-2,11(3H)-dione]	2.73e+06
C=CC(=O)N1CCN2C(=O)CN(CCN3C[C@H]4CC(=O)N(c5cc(C(F)(F)F)cc(C)n5)[C@@H]4C(=O)N(C)c4cccc(F)c43)CC2C1 (mixture of isomers) [Example 116a, (3aR,11aS)-5-(2-((R/S)-8-acryloyl-4-oxooctahydro-2H-pyrazino[1,2-a]pyrazin-2-yl)ethyl)-6-fluoro-10-methyl-1-(6-methyl-4-(trifluoromethyl)pyridin-2-yl)-1,3a,4,5,10,11a-hexahydro-2H-benzo[b]pyrrolo[2,3-f][1,4]diazocine-2,11(3H)-dione]	1.17e+06
C=CC(=O)N1Cc2cc(CN3C[C@H]4CC(=O)N(c5cc(C(F)(F)F)cc(C)n5)[C@@H]4C(=O)N(C)c4cccc(C)c43)cnc2C1COC (single isomer, unassigned) [Example 235]	270000
C=C(C)C(=O)N1CC(OCCCN2C[C@H]3CC(=O)N(c4cc(C(F)(F)F)cc(C)n4)[C@@H]3C(=O)N(C)c3cccc(Cl)c32)C1 [Example 165, (3aR,11aS)-6-chloro-5-(3-((1-methacryloylazetidin-3-yl)oxy)propyl)-10-methyl-1-(6-methyl-4-(trifluoromethyl)pyridin-2-yl)-1,3a,4,5,10,11a-hexahydro-2H-benzo[b]pyrrolo[2,3-f][1,4]diazocine-2,11(3H)-dione]	1.18e+06
C=CC(=O)NC1Cc2ccc(CN3C[C@H]4CC(=O)N(c5cc(C(F)(F)F)cc(C)n5)[C@@H]4C(=O)N(C)c4cccc(Cl)c43)cc2C1 (stereo partly drawn) [Example 286, N-(5-(((3aR,11aS)-6-chloro-10-methyl-1-(6-methyl-4-(trifluoromethyl)pyridin-2-yl)-2,11-dioxo-1,2,3,3a,4,10,11,11a-octahydro-5H-benzo[b]pyrrolo[2,3-f][1,4]diazocin-5-yl)methyl)-2,3-dihydro-1H-inden-2-yl)acrylamide]	610000
C=CC(=O)N1CC[C@@H](O)[C@H](N(C)CCN2C[C@H]3CC(=O)N(c4cc(C(F)(F)F)cc(C)n4)[C@@H]3C(=O)N(C)c3cccc(Cl)c32)C1 (relative stereo) [Example 113, (3aR,11aS)-5-(2-(((rel-trans)-1-acryloyl-4-hydroxypiperidin-3-yl)(methyl)amino)ethyl)-6-chloro-10-methyl-1-(6-methyl-4-(trifluoromethyl)pyridin-2-yl)-1,3a,4,5,10,11a-hexahydro-2H-benzo[b]pyrrolo[2,3-f][1,4]diazocine-2,11(3H)-dione]	1.72e+06
C=CC(=O)N1Cc2cc(CN3C[C@H]4CC(=O)N(c5cc(C(F)(F)F)cc(C)n5)[C@@H]4C(=O)N(C)c4cccc(C)c43)cnc2C1 [Example 312, (3aR,11aS)-5-((6-acryloyl-6,7-dihydro-5H-pyr-rolo[3,4-b]pyridin-3-yl)methyl)-6,10-dimethyl-1-(6-methyl-4-(trifluoro-methyl)pyridin-2-yl)-1,3a,4,5,10, 11a-hexahydro-2H-benzo[b]pyrrolo [2,3-f][1,4]diazo-cine-2,11(3H)-dione]	1.85e+06
C=CC(=O)N1CCN(c2cccc(N3C[C@H]4CC(=O)N(c5cc(C(F)(F)F)cc(C)n5)[C@@H]4C(=O)N(C)c4cccc(Cl)c43)n2)CC1 [Example 56, (3aR,11aS)-5-(6-(4-acryloylpiperazin-1-yl)pyridin-2-yl)-6-chloro-10-methyl-1-(6-methyl-4-(trifluoromethyl)pyridin-2-yl)-1,3a,4,5,10,11a-hexahydro-2H-benzo[b]pyrrolo[2,3-f][1,4]diazocine-2,11(3H)-dione]	36000
C=CC(=O)N1CC(N2CCCN(CCN3C[C@H]4CC(=O)N(c5cc(C(F)(F)F)cc(C)n5)[C@@H]4C(=O)N(C)c4cccc(F)c43)CC2)C1 [Example 3, (3aR,11aS)-5-(2-(4-(1-Acryloylazetidin-3-yl)-1,4-diazepan-1-yl)ethyl)-6-fluoro-10-methyl-1-(6-methyl-4-(trifluoromethyl)pyridin-2-yl)-1,3a,4,5,10,11a-hexahydro-2H-benzo[b]pyrrolo[2,3-f][1,4]diazocine-2,11(3H)-dione]	540000
C/C=C(\CN(C)C)C(=O)N1CC(c2ccc(CN3C[C@H]4CC(=O)N(c5cc(C(F)(F)F)cc(C)n5)[C@@H]4C(=O)N(C)c4cccc(C)c43)cc2)C1 [Example 195, (3aR,11aS)-5-(4-(1-((E)-2-((dimeth-ylamino)methyl)-but-2-enoyl)azeti-din-3-yl)benzyl)-6,10-dimethyl-1-(6-methyl-4-(tri-fluoromethyl)pyr-idin-2-yl)-1,3a,4,5,10,11a-hexa-hydro-2H-benzo [b]pyrrolo[2,3-f] [1,4]diazocine-2,11(3H)-dione]	5.22e+06
